# Data as given in patent publication US4018925A, “Method of arresting bacterial growth with certain selected dichloro-2,2,5,5-tetrasubstituted-3-6-piperazinediones” (Interx Research Corporation, priority 1975, dated 1977).
# Key:
# Pseud. aeruginosa = test: Antibacterial activity: time required for complete sterilization (modified serial dilution method); format: cell-based, Pseud. aeruginosa ATCC 9027
# Excerpt: (§1) The procedure to determine the antibacterial activity of 1,4-dichloro-2,2,5,5-tetramethyl-3,6-piperazinedione was based primarily on a modification of the serial dilution method of analysis. However, instead of determining the minimum inhibitory concentration parameters for the compound investigated, applicants alternatively chose to determine the bactericidal endpoint for a given concentration of the compound investigated. Consequently, applicants studies were established to determine the time required for complete sterilization of the micro-organism tested, when exposed to a given concentration of the compound investigated.
# (§2) Nutrient Broth B.B.L. -- 8g/1000 ml. distilled water. The broth contains 5g. gelysate peptone and 3g. beef extract. The solution has a pH of 6.9.
# (§3) Nutrient Agar -- 23g/1000 ml. distilled water. The nutrient contains 5g. gelysate peptone, 3g. beef extract and 15g. agar.
# (§4) Horse Serum T.C. -- 10% horse serum solution in distilled water. The serum solution was freshly prepared and adjusted to a pH of 7 using carbon dioxide prior to its use.
# (§5) A stock solution of the isolated compound (1,4,dichloro-2,2,5,5-tetramethyl-3,6-piperazinedione) was prepared using an appropriate buffered solution.
# (§6) For screening in the absence of a denaturing agent (e.g., horse serum) an equal volume of distilled water and the resulting solution was subjected to the screen.
# (§7) For screening in the presence of a denaturing agent, a volume of the stock solution was diluted using an equal volume of 10% horse serum. When necessary, the final solution was adjusted to the desired pH using 1N HCL and the solution was permitted to stand at room temperature for thirty minutes prior to the screening procedure.
# (§8) To 5 ml. of the stock solution being evaluated, there was added 0.2 ml. of an overnight broth culture containing the particular micro-organism being investigated (see above). At time intervals of 0.5, 1, 2, 3, 4, 5, . . . minutes, a loop of this suspension was subcultured into 5 ml. of a sterile nutrient broth. All the samples were then incubated at 37° C for seven days with daily observation for evidence of bacterial growth. The time interval reported is for that sample in which no bacterial growth was observed after the incubation period.
# (§9) To 5 ml. of a sterile 0.9% sodium chloride solution, there was added 0.2 ml. of an overnight broth culture containing the particular micro-organismbeing investigated. A loop of this suspension was subcultured into 5 ml. of a sterile nutrient broth and incubated at 37° C for seven days.
# (§10) To 5 ml of a sterile nutrient broth, there was added a loop of the 1,4-dichloro-2,2,5,5-tetramethyl-3,6-piperazinedione solution and the solution was mixed immediately. To this solution, there was then added a loop of an overnight broth culture which was diluted 25x with a 0.9% sodium chloride solution. Incubation was carried out for seven days at a temperature of 37° C.
# (§11) At the same time intervals used for subculturing the test solution into nutrient broth during the screening procedure, a loop of the test solution was also subcultured onto sterile nutrient agar plates. This technique was useful for observing the characteristic colonial morphology of each organism.
# (§12) The entire screening procedure was conducted for each buffered solution using the buffered solution rather than the 1,4-dichloro-2,2,5,5-tetramethyl-3,6-piperazinedione solution in the procedure.
# Bord. bronchiseptica = test: as above; format: cell-based, Bord. bronchiseptica ATCC 4617
# Excerpt: as §1, §2, §3, §4, §5, §6, §7, §8, §9, §10, §11, §12
# Staph. epidermidis = test: as above; format: cell-based, Staph. epidermidis ATCC 12228
# Excerpt: as §1, §2, §3, §4, §5, §6, §7, §8, §9, §10, §11, §12
# E. coli = test: as above; format: cell-based, E. coli ATCC 10536
# Excerpt: as §1, §2, §3, §4, §5, §6, §7, §8, §9, §10, §11, §12
# Kleb. pneumoniae = test: as above; format: cell-based, Kleb. pneumoniae ATCC 10031
# Excerpt: as §1, §2, §3, §4, §5, §6, §7, §8, §9, §10, §11, §12
# Staph. aureus = test: as above; format: cell-based, Staph. aureus ATCC 6538
# Excerpt: as §1, §2, §3, §4, §5, §6, §7, §8, §9, §10, §11, §12
# [1] = Stability of N-chloramines in aqueous solution (half-life, iodometric and/or spectrophotometric); format: physicochemical; details: for half-life: temperature 40
# Procedure: The stability of the compound, 1,4-dichloro-2,2,5,5-tetramethyl-3,6-piperazinedione in aqueous solution was determined by (1) following the disappearance of the positive chlorine concentration of the N-Chloramine solution iodometrically and/or (2) following the decrease in the absorbance at the maximum wavelength spectrophotometrically.
# The data obtained was interpreted in terms of a first order kinetic process and the half-life of said compound was reported in units of time at the condition under which they were determined.
# [2] = 0.1M Na2B4O7 pH8.8, diluent H2O, 0.62 × 10^-3 M (146PPM), positive Cl 43 PPM
# [3] = 0.1M NaH2PO4, diluent H2O, 0.52 × 10^-3 M, positive Cl 36 PPM
# [4] = 0.1M NaH2PO4 pH7.0, diluent serum (10% horse serum), 0.52 × 10^-3 M (126PPM), positive Cl 36 PPM
# [5] = 0.1M NaOAc pH 4.6, diluent H2O, 0.59 × 10^-3 M (139 PPM), positive Cl 41 PPM
# [6] = 0.1M NaOAc pH 4.6, diluent serum (10% horse serum), 0.59 × 10^-3 M (139 PPM), positive Cl 41 PPM
compound,measurement,setting,value
"CC1(C)C(=O)N(Cl)C(C)(C)C(=O)N1Cl [1,4-dichloro-2,2,5,5-tetramethyl-3,6-piperazinedione]","Antibacterial activity time, 9027",Pseud. aeruginosa; [2],4 min
same,"Antibacterial activity time, 9027",Pseud. aeruginosa; [3],5 min
same,"Antibacterial activity time, 9027",Pseud. aeruginosa; [4],> 15 min
same,"Antibacterial activity time, 9027",Pseud. aeruginosa; [5],3 min
same,"Antibacterial activity time, 9027",Pseud. aeruginosa; [6],> 10 min
same,"Antibacterial activity time, 4617",Bord. bronchiseptica; [2],4 min
same,"Antibacterial activity time, 4617",Bord. bronchiseptica; [3],3 min
same,"Antibacterial activity time, 4617",Bord. bronchiseptica; [4],> 15 min
same,"Antibacterial activity time, 4617",Bord. bronchiseptica; [5],1 min
same,"Antibacterial activity time, 4617",Bord. bronchiseptica; [6],> 10 min
same,"Antibacterial activity time, 12228",Staph. epidermidis; [2],2 min
same,"Antibacterial activity time, 12228",Staph. epidermidis; [3],2 min
same,"Antibacterial activity time, 12228",Staph. epidermidis; [4],> 15 min
same,"Antibacterial activity time, 12228",Staph. epidermidis; [5],2 min
same,"Antibacterial activity time, 12228",Staph. epidermidis; [6],> 15 min
same,"Antibacterial activity time, 10536",E. coli; [2],1 min
same,"Antibacterial activity time, 10536",E. coli; [3],1 min
same,"Antibacterial activity time, 10536",E. coli; [4],> 15 min
same,"Antibacterial activity time, 10536",E. coli; [5],1 min
same,"Antibacterial activity time, 10536",E. coli; [6],> 10 min
same,"Antibacterial activity time, 10031",Kleb. pneumoniae; [2],4 min
same,"Antibacterial activity time, 10031",Kleb. pneumoniae; [3],4 min
same,"Antibacterial activity time, 10031",Kleb. pneumoniae; [4],> 15 min
same,"Antibacterial activity time, 10031",Kleb. pneumoniae; [5],2 min
same,"Antibacterial activity time, 10031",Kleb. pneumoniae; [6],> 10 min
same,"Antibacterial activity time, 6538",Staph. aureus; [2],4 min
same,"Antibacterial activity time, 6538",Staph. aureus; [3],4 min
same,"Antibacterial activity time, 6538",Staph. aureus; [4],> 15 min
same,"Antibacterial activity time, 6538",Staph. aureus; [5],3 min
same,"Antibacterial activity time, 6538",Staph. aureus; [6],> 15 min
same,half-life,[1]; 0.1M Na2B4O7 pH 9.3,38 h
same,half-life,[1]; 0.1M NaH2PO4 pH 7.0,332 h
same,half-life,[1]; 0.1M NaOAc pH 4.6,3070 h
same,"Stability (half-life) compared with 1,4-dichloro-2,5-piperazinedione","[1]; same pH (4.6, 7.0 and 9.3)",far greater stability (half-life)
"O=C1CN(Cl)C(=O)CN1Cl [1,4-dichloro-2,5-piperazinedione, reference compound]",half-life,[1]; 0.1M Na2B4O7 pH 9.3,0.717 h
same,half-life,[1]; 0.1M NaH2PO4 pH 7.0,0.883 h
same,half-life,[1]; 0.1M NaOAc pH 4.6,15.5 h
